What was measured:
[1] = tested on: saT1R1/R3, saT1R2a/R3 and saT1R2b/R3; test: Screen of 20 L-AAs for dose-response activation of the three saT1R heterodimers in Cl.3 cells; type: cell-based, Sparus aurata; details: up to eight concentrations, 10 nM to 100 mM
Method: (§1) saT1Rs (saT1R1, saT1R2a, saT1R2b saT1R3) and saGαi1-2 genes were RT-PCR amplified using 5’ and 3’ flanking primers carrying HindIII and XhoI restriction sites, respectively. Gel-purified fragments were cloned into pGEM-T Easy vectors, re-sequenced, digested and subcloned into pcDNA™3 (Invitrogen, Carlsbad, CA, USA). Effective saT1R cloning into pcDNA™3 was further verified by HindIII/XhoI digestion. Transient co-transfections were done in 6-well plates (confluence ~70–80%) using 100 μL of reduced serum medium (Opti-MEM, Gibco, Thermo Fisher, Saint Louis, MO, USA) containing 150 ng of each selected pcDNA™3 construct, 1:10 charge ratio of Enhanced Green Fluorescent expressing construct (EGFP; positive control), and pBluescript II SK (+) vector DNA (Addgene, Watertown, MA, USA) up to 1 µg of totally transfected DNA. Following 24 h incubation, cells were washed with fresh standard medium and plated in polylysine treated plates for additional 24 h. Cells were then stimulated with L-AAs and sugar compounds for 18 h in a reduced assay medium (BME w/o L-glutamate; Gibco, Thermo Fisher, Saint Louis, MO, USA) + 1% FBS), to prevent unspecific Ca^2+/NFAT signaling activation and potential saT1R desensitization. All L-AAs and sugars used for in vitro experiments were obtained from Merck KGaA (Darmstadt, Germany).

[2] = target: T1, saT1R2a/R3 (Sparus aurata, UniProt A0A671TK95+A0A671VZB3); test: saT1R2a/R3 heterodimer transiently transfected in stable pGL3-NFAT-luc-HEK293 (Cl.3) cells, luciferase reporter; type: cell-based; details: for T1R2a/R3 [MSD] maximum stimulation dose: as molarity, decimal comma
T1 sequence (A0A671TK95 20-825): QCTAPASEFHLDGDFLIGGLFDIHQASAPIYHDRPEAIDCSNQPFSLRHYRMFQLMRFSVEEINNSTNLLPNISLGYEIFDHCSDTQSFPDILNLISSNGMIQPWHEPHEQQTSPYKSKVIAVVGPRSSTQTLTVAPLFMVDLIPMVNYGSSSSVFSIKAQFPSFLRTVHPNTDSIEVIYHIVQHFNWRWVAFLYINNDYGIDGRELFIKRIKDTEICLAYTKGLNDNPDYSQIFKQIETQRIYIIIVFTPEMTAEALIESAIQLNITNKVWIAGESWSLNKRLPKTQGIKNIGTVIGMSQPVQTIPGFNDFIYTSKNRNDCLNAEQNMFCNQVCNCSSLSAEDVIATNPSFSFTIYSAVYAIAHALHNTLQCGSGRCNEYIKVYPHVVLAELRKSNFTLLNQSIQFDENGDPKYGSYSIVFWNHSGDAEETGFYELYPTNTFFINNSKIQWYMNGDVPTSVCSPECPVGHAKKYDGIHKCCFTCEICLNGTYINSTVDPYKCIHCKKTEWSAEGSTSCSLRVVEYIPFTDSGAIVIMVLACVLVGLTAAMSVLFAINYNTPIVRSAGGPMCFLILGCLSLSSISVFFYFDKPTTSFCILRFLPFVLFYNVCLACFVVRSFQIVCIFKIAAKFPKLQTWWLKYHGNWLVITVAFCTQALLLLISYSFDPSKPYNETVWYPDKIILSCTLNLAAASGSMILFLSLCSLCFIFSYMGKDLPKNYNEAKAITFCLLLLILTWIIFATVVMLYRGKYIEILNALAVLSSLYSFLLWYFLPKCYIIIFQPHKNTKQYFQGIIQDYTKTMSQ
T1 sequence (A0A671VZB3 24-860): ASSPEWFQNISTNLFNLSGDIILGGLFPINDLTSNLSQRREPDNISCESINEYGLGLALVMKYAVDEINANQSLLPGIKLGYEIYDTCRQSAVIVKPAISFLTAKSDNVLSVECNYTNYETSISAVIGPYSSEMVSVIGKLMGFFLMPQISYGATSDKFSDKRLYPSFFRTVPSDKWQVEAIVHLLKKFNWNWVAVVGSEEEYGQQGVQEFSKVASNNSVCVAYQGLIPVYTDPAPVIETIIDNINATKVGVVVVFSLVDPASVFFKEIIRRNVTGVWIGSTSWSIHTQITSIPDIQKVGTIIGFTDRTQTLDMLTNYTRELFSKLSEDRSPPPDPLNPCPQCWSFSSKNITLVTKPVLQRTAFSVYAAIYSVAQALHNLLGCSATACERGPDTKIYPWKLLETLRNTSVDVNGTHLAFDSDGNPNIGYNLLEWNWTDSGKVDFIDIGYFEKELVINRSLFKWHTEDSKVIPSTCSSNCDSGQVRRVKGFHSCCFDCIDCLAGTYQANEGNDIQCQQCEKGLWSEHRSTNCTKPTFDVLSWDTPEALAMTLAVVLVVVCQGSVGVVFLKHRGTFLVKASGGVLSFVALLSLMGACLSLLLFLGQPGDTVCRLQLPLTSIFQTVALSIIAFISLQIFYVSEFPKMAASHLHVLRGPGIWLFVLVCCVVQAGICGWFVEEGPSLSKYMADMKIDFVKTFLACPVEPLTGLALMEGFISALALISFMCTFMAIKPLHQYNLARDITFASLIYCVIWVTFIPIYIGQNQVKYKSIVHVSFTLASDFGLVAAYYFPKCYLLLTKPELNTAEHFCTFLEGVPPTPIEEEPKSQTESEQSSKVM
From the text: Figure 6 Amino acid Log-dose response curves of activation in heterologous co-transfected (Cl.3) cells with saT1R1/3 (green dots), saT1R2a/3 (red squares) and saT1R2b/3 (black triangles) heterodimers. Evaluation of L-AA responses was based on the RLU mean ± SEM of four independent determinations normalized to the mean response of the same transfections stimulated with reduced assay medium (Basal Medium Eagle w/o L-glutamate (BME) + 1% FBS), and expressed as the percentage relative to basal levels (BL).
HEK293 cells were cultured in standard medium DMEM (Gibco, Thermo Fisher, Saint Louis, MO, USA) containing 10% FBS, penicillin (100 U/mL) and streptomycin ([…]) at 37 °C, with a humidified atmosphere at 5% CO2. pGL3-NFAT-luc-HEK293 stable clones were generated by co-transfections of pGL3-NFAT-luc and tgCMV/HyTK plasmids (50:1), the latter harboring the hygromycin phosphotransferase gene, using Lipofectamine LTX according to supplier’s protocols (Thermo Fisher, Saint Louis, MO, USA). Initially, HEK293 cells were selected using DMEM containing 400 μg/mL hygromycin B (Sigma, Darmstadt, Germany) in 24-well plates for two weeks; 24 colonies were further grown out in 96-well plates under reduced hygromycin selection (200 µg/mL) for three weeks. Potentially resistant NFAT-luc-HEK293 clones (n = 22) were validated after incubation in assay medium (DMEM + 1% FBS) containing PMA or Ionomycin (Sigma, Darmstadt, Germany) for 18 h (triplicates, 50,000 cells/well). Luciferase activity was quantified with ONE-Glo™ EX Reagent Kit (Promega, Madison, WI, USA) using a 96-microplate TECAN reader (Trading AG, Switzerland).
as §1

| concentration with significant activation ([2]; saT1R2a/R3, tested 1–500 mM) [mM] | Structure (SMILES) | dose-response activation for at least one of the three saT1R heterodimers [1] | T1R2a/R3 [MSD] maximum stimulation dose [2] |
| --- | --- | --- | --- |
| – | C[C@H](N)C(=O)O [Ala, Alanine] | generated a dose-response activation | 1,00 × 10^-1 M |
| – | N=C(N)NCCC[C@H](N)C(=O)O [Arg, Arginine] | did not respond in a dose-response manner | 1,00 × 10^-5 M |
| – | NC(=O)C[C@H](N)C(=O)O [Asn, Asparagine] | did not respond in a dose-response manner | 1,00 × 10^-1 M |
| – | N[C@@H](CC(=O)O)C(=O)O [Asp, Aspartic acid] | did not respond in a dose-response manner | 1,00 × 10^-5 M |
| – | N[C@@H](CS)C(=O)O [Cys, Cysteine] | did not respond in a dose-response manner | 1,00 × 10^-4 M |
| 200 | OC[C@H]1OC(O)[C@H](O)[C@@H](O)[C@@H]1O (stereo partly drawn) [D-Glucose] | – | – |
| – | NC(=O)CC[C@H](N)C(=O)O [Gln, Glutamine] | generated a dose-response activation | 1,00 × 10^-1 M |
| – | N[C@@H](CCC(=O)O)C(=O)O [Glu, Glutamic acid] | generated a dose-response activation | 1,00 × 10^-2 M |
| – | NCC(=O)O [Gly, Glycine] | generated a dose-response activation | 1,00 × 10^-1 M |
| – | N[C@@H](Cc1c[nH]cn1)C(=O)O [His, Histidine] | did not respond in a dose-response manner | 1,00 × 10^-5 M |
| – | CC[C@H](C)[C@H](N)C(=O)O [Ile, Isoleucine] | generated a dose-response activation | 1,00 × 10^-1 M |
| – | CC(C)C[C@H](N)C(=O)O [Leu, Leucine] | generated a dose-response activation | 1,00 × 10^-1 M |
| – | NCCCC[C@H](N)C(=O)O [Lys, Lysine] | did not respond in a dose-response manner | 1,00 × 10^-3 M |
| – | CSCC[C@H](N)C(=O)O [Met, Methionine] | generated a dose-response activation | 1,00 × 10^-1 M |
| – | N[C@@H](Cc1ccccc1)C(=O)O [Phe, Phenylalanine] | did not respond in a dose-response manner | 1,00 × 10^-2 M |
| – | O=C(O)[C@@H]1CCCN1 [Pro, Proline] | generated a dose-response activation | 1,00 × 10^-1 M |
| – | N[C@@H](CO)C(=O)O [Ser, Serine] | generated a dose-response activation | 1,00 × 10^-1 M |
| – | C[C@@H](O)[C@H](N)C(=O)O [Thr, Threonine] | generated a dose-response activation | 1,00 × 10^-1 M |
| – | N[C@@H](Cc1c[nH]c2ccccc12)C(=O)O [Trp, Tryptophan] | did not respond in a dose-response manner | 1,00 × 10^-3 M |
| – | N[C@@H](Cc1ccc(O)cc1)C(=O)O [Tyr, Tyrosine] | did not respond in a dose-response manner | 1,00 × 10^-3 M |
| – | CC(C)[C@H](N)C(=O)O [Val, Valine] | generated a dose-response activation | 1,00 × 10^-1 M |

Source: article PMC7594079, “Insights into the Function and Evolution of Taste 1 Receptor Gene Family in the Carnivore Fish Gilthead Seabream (Sparus aurata)” (International Journal of Molecular Sciences, 2020)
